Structures can show the parent of a compound that is named as a salt.
What was measured:
Type in all cases: cell-based
KRAS G12V HeLa cell line = assay: Wild-type versus KRAS HeLa cell viability: oncogenic KrasG12V transgene; details: Homo sapiens; HeLa cells expressing KRAS G12V, 72 hours
Experimental: (§1) Assay to Measure the Effects of Compounds of the Invention on Wild-Type Versus KRAS HeLa Cell Viability
(§2) Identifying synthetic lethal interactions between targeted small molecule therapies and characterised oncogenic mutations is a goal of modern oncology drug discovery efforts. To this end, PLK1-PBD inhibitors were tested on HeLa cells engineered to inducibly express wild-type or oncogenic KrasG12V transgenes using the FLP-in/T-Rex system (Invitrogen). Cells were plated, and then treated with or without Doxycycline to induce transgene expression, and then treated with serially-diluted PBD inhibitors. After 72 hours of incubation, cell viability was assessed using the Cell Titre Blue reagent (Promega) and a BMG Pherastar plate reader. The effect of PBD inhibition on cell viability with either wild-type or oncogenic G12V KRAS was assessed using the graphing/curve-fitting packages in GraphPad Prism.

HCT116 cells = assay: Effects on HCT116 colorectal cancer cell viability (cell titre blue, 72 hours); details: Homo sapiens, HCT-116, HCT116 cell line
HeLa cells = assay: Arresting cells in mitosis (Mitotic Index, phosphorylated Histone H3 immunofluorescence); details: HeLa cell line, 24 hours
Experimental: Assay to Measure the Effects of Compounds of the Invention on Arresting Cells in Mitosis
Inhibiting the ability of PLK1 to bind to its phosphopeptide binding partners through the PBD causes cells to arrest in mitosis. Experimentally, this is measured by assessing the number of cells which are in mitosis at a certain time after treatment with a PLK1-PBD inhibitor by immunofluorescent detection of phosphorylated Histone H3 (pH3), a marker which is only present in mitotic cells. PLK1-PBD inhibitors are expected to cause a dose-dependent increase in pH3-positive cells, which is reported as Mitotic Index (MI)—the percentage of cells which, at a given time, are positive for this mitotic mark. The following protocol has been used to measure MI: • 1. Plate HeLa cells at 10,000/well in 100 μL/well in clear flat-bottom 96-well plates and incubate overnight. • 2. Immediately prior to treatment, dilute compounds in medium in a 96-well round-bottom plate. Make up all compounds at 5 times final desired concentration on cells, and serially dilute 1:2 across the plate ensuring that there is 100 μL of each concentration (start with 200 μl of the top concentration on the left of the plate). […] Treat cells by adding 25 μL from the compound dilution plate to triplicate wells. • 4. Incubate cells with compound for 24 hours. • 5. After 24 hours, fixation and staining is carried out as follows: • 6. Dilute 37% formaldehyde in PBS to give a 12.95% solution by adding 3.5 mL formaldehyde to 6.5 mL of PBS. • 7. Add 50 μL of formaldehyde fixation solution directly to each well of cells (which already contain 125 μL medium). • 8. Incubate at room temp for 10 minutes. • 9. Remove fixative and add 100 μL/well PBS+0.1% Triton X-100 for 10 minutes. • 10. Aspirate and add 100 μL/well PBS+1% BSA. • 11. Aspirate and add 50 μL/well of primary antibody (anti-PH3 [1:2000]/anti-MPM2 [1:1000]) diluted in PBS+1% BSA. Incubate for 1 hour. • 12. Wash×2 with 100 μL/well PBS+1% BSA. • 13. Add 50 μL/well of secondary antibody plus Hoechst stain (anti-rabbit Alexafluor 488 [1:500]; anti-mouse Alexafluor 546 [1:500]+Hoechst 33342 [1:2500 final concentration=4 μg/mL])diluted in PBS+1% BSA. Incubate for 1 hour. • 14. Wash twice with 100 μL/well PBS+1% BSA. • 15. Aspirate and add 100 μL/well PBS. Plates can be stored at 4° C. in PBS for several weeks before scanning on the Cellomics Arrayscan. […] Scan on Cellomics using Target Activation Bioapplication. • 17. MI data emerging from the Cellomic Bioapplication can be used to plot MI versus compound concentration, and subsequently used to generate an EC50 value for each compound using an appropriate graphing/curve-fitting package such as GraphPad Prism.

wild-type HeLa cell line = assay: Wild-type versus KRAS HeLa cell viability: wild-type KRAS transgene; details: Homo sapiens; HeLa cells expressing wild-type KRAS, 72 hours; read-out: WT GI50
Experimental: as §1, §2

[1] = tested on: HCT116 cells (a mutant KRAS G-13D expressing cell line); assay: Drug resistance studies in HCT116 cells; details: five times the half maximal growth inhibiting amount, twenty two days

Row | GI50 (KRAS G12V HeLa cell line) | GI50 (HCT116 cells) | EC50 (HeLa cells; Homo sapiens, Mitotic Index, read-out: EC50) | GI50 (wild-type HeLa cell line) | SMILES | % mitotic cells (HeLa cells) | formation of drug-resistant colonies [1]
1 | 0.02 µM | 0.03 µM | 0.19 µM | 0.05 µM | CN(C)CCNC(=O)c1ccc(-c2ccc(-c3ccc(Br)cc3)n2-c2ccccc2C(F)(F)F)cc1 [Example 9, 4-[5-(4-Bromophenyl)-1-[2-(trifluoromethyl)phenyl]pyrrol-2-yl]-N-[2-(dimethylamino)ethyl]benzamide Hydrochloride] | 89% | 
2 |  |  |  |  | CC[C@@H]1C(=O)N(C)c2cnc(Nc3ccc(C(=O)NC4CCN(C)CC4)cc3OC)nc2N1C1CCCC1 [Example B12536, 4-[[(7R)-8-cyclopentyl-7-ethyl-5,6,7,8-tetrahydro-5-methyl-6-oxo-2-pteridinyl]amino]-3-methoxy-N-(1-methyl-4-piperidinyl)benzamide, reference compound] |  | drug-resistant colonies were formed

From US11208405B2, “Pyrrole derivatives as PLK1 inhibitors” (SENTINEL ONCOLOGY LIMITED, priority 2017, dated 2021)
